Measurements taken from ChEMBL document CHEMBL3112568, “Synthesis, antifungal activities and molecular docking studies of novel 2-(2,4-difluorophenyl)-2-hydroxy-3-(1H-1,2,4-triazol-1-yl)propyl dithiocarbamates” (2014).
In brackets after ≈: the same amount, converted by molar mass.

Experiments:
Type in all cases: functional
[1] = system: Candida albicans; assay: Antifungal activity against Candida albicans Y0109 after 24 hrs by micro-broth dilution method; settings: Y0109, 24 h
[2] = system: Nannizzia gypsea; assay: Antifungal activity against Microsporum gypseum by micro-broth dilution method
[3] = system: Trichophyton rubrum; assay: Antifungal activity against Trichophyton rubrum by micro-broth dilution method
[4] = system: Cryptococcus neoformans; assay: Antifungal activity against Cryptococcus neoformans after 72 hrs by micro-broth dilution method
[5] = system: Nakaseomyces glabratus; assay: Antifungal activity against Candida glabrata by micro-broth dilution method
[6] = system: Candida albicans; assay: Antifungal activity against Candida albicans SC5314 after 24 hrs by micro-broth dilution method; settings: SC5314, 24 h
[7] = system: Aspergillus fumigatus; assay: Antifungal activity against Aspergillus fumigatus by micro-broth dilution method
[8] = system: Candida parapsilosis; assay: Antifungal activity against Candida parapsilosis by micro-broth dilution method; settings: Lodderomyces parapsilosis

Compound	MIC80 [1] [µg/mL]	MIC80 [2] [µg/mL]	MIC80 [3] [µg/mL]	MIC80 [4] [µg/mL]	MIC80 [5] [µg/mL]	MIC80 [6] [µg/mL]	MIC80 [7] [µg/mL]	MIC80 [8] [µg/mL]
CC(C)NC(=S)SCC(O)(Cn1cncn1)c1ccc(F)cc1F (racemic)	1 (≈ 2.68 µM)	> 64	64 (≈ 172 µM)	64 (≈ 172 µM)	4 (≈ 10.7 µM)	2 (≈ 5.37 µM)	> 64	1 (≈ 2.68 µM)
OC(CSC(=S)N1CCN(c2cccc(Cl)c2Cl)CC1)(Cn1cncn1)c1ccc(F)cc1F (racemic)	≤ 0.125	16 (≈ 29.4 µM)	0.5 (≈ 0.918 µM)	0.5 (≈ 0.918 µM)	0.5 (≈ 0.918 µM)	0.5 (≈ 0.918 µM)	> 64	1 (≈ 1.84 µM)
CN(C)C(=S)SCC(O)(Cn1cncn1)c1ccc(F)cc1F (racemic)	≤ 0.125	2 (≈ 5.58 µM)	0.5 (≈ 1.39 µM)	0.5 (≈ 1.39 µM)	≤ 0.125	≤ 0.125	8 (≈ 22.3 µM)	0.5 (≈ 1.39 µM)
COc1cccc(N2CCN(C(=S)SCC(O)(Cn3cncn3)c3ccc(F)cc3F)CC2)c1 (racemic)	≤ 0.125	4 (≈ 7.91 µM)	1 (≈ 1.98 µM)	0.25 (≈ 0.494 µM)	0.25 (≈ 0.494 µM)	≤ 0.125	16 (≈ 31.6 µM)	0.5 (≈ 0.989 µM)
OC(CSC(=S)N1CCN(c2ccc(Cl)cc2)CC1)(Cn1cncn1)c1ccc(F)cc1F (racemic)	≤ 0.125	4 (≈ 7.84 µM)	1 (≈ 1.96 µM)	≤ 0.125	0.25 (≈ 0.49 µM)	≤ 0.125	16 (≈ 31.4 µM)	0.5 (≈ 0.98 µM)
OC(CSC(=S)N1CCN(c2cccc(C(F)(F)F)c2)CC1)(Cn1cncn1)c1ccc(F)cc1F (racemic)	≤ 0.125	2 (≈ 3.68 µM)	1 (≈ 1.84 µM)	0.25 (≈ 0.46 µM)	0.25 (≈ 0.46 µM)	≤ 0.125	8 (≈ 14.7 µM)	0.5 (≈ 0.92 µM)
CN(Cc1ccccc1)C(=S)SCC(O)(Cn1cncn1)c1ccc(F)cc1F (racemic)	0.25 (≈ 0.575 µM)	> 64	> 64	1 (≈ 2.3 µM)	0.25 (≈ 0.575 µM)	0.25 (≈ 0.575 µM)	16 (≈ 36.8 µM)	0.5 (≈ 1.15 µM)
OCCN(CCO)C(=S)SCC(O)(Cn1cncn1)c1ccc(F)cc1F (racemic)	8 (≈ 19.1 µM)	1 (≈ 2.39 µM)	1 (≈ 2.39 µM)	64 (≈ 153 µM)	0.25 (≈ 0.597 µM)	8 (≈ 19.1 µM)	> 64	> 64
OC(CSC(=S)N1CCOCC1)(Cn1cncn1)c1ccc(F)cc1F (racemic)	≤ 0.125	8 (≈ 20 µM)	8 (≈ 20 µM)	0.25 (≈ 0.624 µM)	≤ 0.125	≤ 0.125	16 (≈ 40 µM)	0.25 (≈ 0.624 µM)
CCC(C)n1ncn(-c2ccc(N3CCN(c4ccc(OCC5COC(Cn6cncn6)(c6ccc(Cl)cc6Cl)O5)cc4)CC3)cc2)c1=O (stereo not given) [ITRACONAZOLE]	8 (≈ 11.3 µM)	4 (≈ 5.67 µM)	4 (≈ 5.67 µM)	4 (≈ 5.67 µM)	1 (≈ 1.42 µM)	4 (≈ 5.67 µM)	8 (≈ 11.3 µM)	8 (≈ 11.3 µM)
Cc1cccc(N2CCN(C(=S)SCC(O)(Cn3cncn3)c3ccc(F)cc3F)CC2)c1C (racemic)	0.5 (≈ 0.993 µM)	> 64	1 (≈ 1.99 µM)	0.5 (≈ 0.993 µM)	0.5 (≈ 0.993 µM)	0.5 (≈ 0.993 µM)	> 64	1 (≈ 1.99 µM)
CNC(=S)SCC(O)(Cn1cncn1)c1ccc(F)cc1F (racemic)	1 (≈ 2.9 µM)	> 64	4 (≈ 11.6 µM)	64 (≈ 186 µM)	2 (≈ 5.81 µM)	1 (≈ 2.9 µM)	> 64	> 64
OC(CSC(=S)N1CCCCC1)(Cn1cncn1)c1ccc(F)cc1F (racemic)	≤ 0.125	8 (≈ 20.1 µM)	8 (≈ 20.1 µM)	≤ 0.125	≤ 0.125	≤ 0.125	16 (≈ 40.2 µM)	0.5 (≈ 1.25 µM)
Cc1ccccc1N1CCN(C(=S)SCC(O)(Cn2cncn2)c2ccc(F)cc2F)CC1 (racemic)	≤ 0.125	16 (≈ 32.7 µM)	2 (≈ 4.08 µM)	0.5 (≈ 1.02 µM)	0.5 (≈ 1.02 µM)	0.25 (≈ 0.511 µM)	> 64	1 (≈ 2.04 µM)
CC(=O)N1CCN(c2ccc(OCC3COC(Cn4ccnc4)(c4ccc(Cl)cc4Cl)O3)cc2)CC1 (stereo not given) [KETOCONAZOLE]	0.25 (≈ 0.47 µM)	1 (≈ 1.88 µM)	0.125 (≈ 0.235 µM)	0.25 (≈ 0.47 µM)	0.5 (≈ 0.941 µM)	≤ 0.125	4 (≈ 7.53 µM)	0.5 (≈ 0.941 µM)
OCCN(Cc1ccccc1)C(=S)SCC(O)(Cn1cncn1)c1ccc(F)cc1F (racemic)	0.25 (≈ 0.538 µM)	32 (≈ 68.9 µM)	2 (≈ 4.31 µM)	2 (≈ 4.31 µM)	≤ 0.125	0.25 (≈ 0.538 µM)	> 64	0.25 (≈ 0.538 µM)
OC(CSC(=S)NC1CCCCC1)(Cn1cncn1)c1ccc(F)cc1F (racemic)	0.25 (≈ 0.606 µM)	> 64	64 (≈ 155 µM)	16 (≈ 38.8 µM)	4 (≈ 9.7 µM)	0.25 (≈ 0.606 µM)	> 64	64 (≈ 155 µM)
O=C1CCN(C(=S)SCC(O)(Cn2cncn2)c2ccc(F)cc2F)CC1 (racemic)	≤ 0.125	32 (≈ 77.6 µM)	2 (≈ 4.85 µM)	2 (≈ 4.85 µM)	≤ 0.125	≤ 0.125	8 (≈ 19.4 µM)	1 (≈ 2.42 µM)
OC(CSC(=S)N1CCN(c2ccccc2)CC1)(Cn1cncn1)c1ccc(F)cc1F (racemic)	0.25 (≈ 0.526 µM)	2 (≈ 4.21 µM)	2 (≈ 4.21 µM)	≤ 0.125	≤ 0.125	0.25 (≈ 0.526 µM)	4 (≈ 8.41 µM)	0.25 (≈ 0.526 µM)
OC(CSC(=S)NC1CC1)(Cn1cncn1)c1ccc(F)cc1F (racemic)	1 (≈ 2.7 µM)	> 64	64 (≈ 173 µM)	64 (≈ 173 µM)	8 (≈ 21.6 µM)	1 (≈ 2.7 µM)	> 64	1 (≈ 2.7 µM)
OC(CSC(=S)N1CCN(c2cccc(F)c2)CC1)(Cn1cncn1)c1ccc(F)cc1F (racemic)	≤ 0.125	4 (≈ 8.1 µM)	0.5 (≈ 1.01 µM)	≤ 0.125	0.25 (≈ 0.507 µM)	≤ 0.125	8 (≈ 16.2 µM)	0.5 (≈ 1.01 µM)
CCCCNC(=S)SCC(O)(Cn1cncn1)c1ccc(F)cc1F (racemic)	0.5 (≈ 1.29 µM)	> 64	> 64	64 (≈ 166 µM)	16 (≈ 41.4 µM)	0.5 (≈ 1.29 µM)	> 64	0.25 (≈ 0.647 µM)
CN(CCO)C(=S)SCC(O)(Cn1cncn1)c1ccc(F)cc1F (racemic)	≤ 0.125	16 (≈ 41.2 µM)	4 (≈ 10.3 µM)	8 (≈ 20.6 µM)	≤ 0.125	≤ 0.125	> 64	≤ 0.125
CCNC(=S)SCC(O)(Cn1cncn1)c1ccc(F)cc1F (racemic)	1 (≈ 2.79 µM)	> 64	4 (≈ 11.2 µM)	64 (≈ 179 µM)	4 (≈ 11.2 µM)	1 (≈ 2.79 µM)	> 64	> 64
OC(CSC(=S)N1CCN(c2ccc(F)cc2)CC1)(Cn1cncn1)c1ccc(F)cc1F (racemic)	≤ 0.125	2 (≈ 4.05 µM)	1 (≈ 2.03 µM)	≤ 0.125	0.25 (≈ 0.507 µM)	0.25 (≈ 0.507 µM)	16 (≈ 32.4 µM)	0.25 (≈ 0.507 µM)
